Source: PubChem BioAssay AID248 (DTP/NCI, 2004)
Toxic doses and inconclusive results are not listed. No stated cut-off is given here; in the data, active means T/C of 150% or more; inactive means T/C below 125%.

Test system: L1210 leukemia ip in BDF1 mice, survival T/C
Assay: NCI In Vivo Anticancer Drug Screen. Data for tumor model L1210 Leukemia (intraperitoneal) in B6D2F1 (BDF1) mice
Conditions: endpoint: mean survival time, higher = longer survival
Procedure, shortened: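 Tumor was transplanted into mice, which were then dosed with test compound or vehicle alone. Survival was recorded for each group, and the treated figure was expressed relative to the control figure.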

[1] = dose: 100.0 mg/kg/injection, schedule: Q04DX003 (ip), vehicle: saline with Tween-80
[2] = dose: 200.0 mg/kg/injection, schedule: Q04DX003 (ip), vehicle: saline with Tween-80
[3] = dose: 100.0 mg/kg/injection, schedule: Q04DX002 (ip), vehicle: Klucel (hydroxypropylcellulose) (HPC)
[4] = dose: 200.0 mg/kg/injection, schedule: Q04DX002 (ip), vehicle: Klucel (hydroxypropylcellulose) (HPC)
[5] = dose: 400.0 mg/kg/injection, schedule: Q04DX002 (ip), vehicle: Klucel (hydroxypropylcellulose) (HPC)
[6] = dose: 100.0 mg/kg/injection, schedule: Q01DX001 (ip), vehicle: saline
[7] = dose: 200.0 mg/kg/injection, schedule: Q01DX001 (ip), vehicle: saline
[8] = dose: 400.0 mg/kg/injection, schedule: Q01DX001 (ip), vehicle: saline

Measured: T/C

Cc1c2oc3c(C)c([N+](=O)[O-])cc(C(=O)NC4C(=O)NC(C(C)C)C(=O)N5CCCC5C(=O)N(C)CC(=O)N(C)C(C(C)C)C(=O)OC4C)c3nc-2c(C(=O)NC2C(=O)NC(C(C)C)C(=O)N3CCCC3C(=O)N(C)CC(=O)N(C)C(C(C)C)C(=O)OC2C)c(N)c1=O (centres undefined)
inactive: dose: 75.0 micrograms/kg/injection, schedule: Q01DX009 (ip), vehicle: saline + alcohol 110 % of control | dose: 100.0 micrograms/kg/injection, schedule: Q01DX009 (ip), vehicle: saline + alcohol 116 % of control | dose: 150.0 micrograms/kg/injection, schedule: Q01DX009 (ip), vehicle: saline + alcohol 111 % of control | dose: 300.0 micrograms/kg/injection, schedule: Q01DX009 (ip), vehicle: saline + alcohol 108 % of control | dose: 400.0 micrograms/kg/injection, schedule: Q01DX009 (ip), vehicle: saline + alcohol 96 % of control | dose: 400.0 micrograms/kg/injection, schedule: Q04DX003 (ip), vehicle: saline + alcohol 124 % of control | dose: 600.0 micrograms/kg/injection, schedule: Q04DX003 (ip), vehicle: saline + alcohol 119 % of control | dose: 800.0 micrograms/kg/injection, schedule: Q04DX003 (ip), vehicle: saline + alcohol 106 % of control | dose: 1200.0 micrograms/kg/injection, schedule: Q04DX003 (ip), vehicle: saline + alcohol 111 % of control

O=C(COc1cc(Cl)c(Cl)cc1Cl)Nc1ccc([N+](=O)[O-])cc1Cl
inactive: dose: 100.0 mg/kg/injection, schedule: Q04DX002 (ip), vehicle: saline with Tween-80 102 % of control | dose: 200.0 mg/kg/injection, schedule: Q04DX002 (ip), vehicle: saline with Tween-80 109 % of control | dose: 400.0 mg/kg/injection, schedule: Q04DX002 (ip), vehicle: saline with Tween-80 98 % of control

CN(c1ccccc1)[N+](=O)[O-]
inactive: dose: 100.0 mg/kg/injection, schedule: Q01DX001 (ip), vehicle: other 94 % of control | dose: 200.0 mg/kg/injection, schedule: Q01DX001 (ip), vehicle: other 97 % of control | dose: 400.0 mg/kg/injection, schedule: Q01DX001 (ip), vehicle: other 97 % of control

Cc1ccc2nc(-c3ccc(N)cc3)sc2c1S(=O)(=O)O
inactive: dose: 100.0 mg/kg/injection, schedule: Q01DX009 (ip), vehicle: saline 100 % of control | dose: 100.0 mg/kg/injection, schedule: Q04DX002 (ip), vehicle: saline 92 % of control | dose: 200.0 mg/kg/injection, schedule: Q01DX009 (ip), vehicle: saline 96 % of control | dose: 200.0 mg/kg/injection, schedule: Q04DX002 (ip), vehicle: saline 105 % of control | dose: 400.0 mg/kg/injection, schedule: Q01DX009 (ip), vehicle: saline 110 % of control | dose: 400.0 mg/kg/injection, schedule: Q04DX002 (ip), vehicle: saline 99 % of control

O=C(COc1ccc(Cl)c(Cl)c1)NCc1ccc[n+](Cc2ccc([N+](=O)[O-])cc2)c1
inactive: [1] 89 % of control | [2] 91 % of control | dose: 400.0 mg/kg/injection, schedule: Q04DX003 (ip), vehicle: saline with Tween-80 88 % of control

CC(C)CCCC(C)C1CCC2C3C(=O)C=C4CC(O)CCC4(C)C3CCC12C (centres undefined)
inactive: dose: 100.0 mg/kg/injection, schedule: Q01DX009 (sc), vehicle: steriod suspending solution 106 % of control | dose: 100.0 mg/kg/injection, schedule: Q04DX003 (sc), vehicle: steriod suspending solution 100 % of control | dose: 200.0 mg/kg/injection, schedule: Q01DX009 (sc), vehicle: steriod suspending solution 96 % of control | dose: 200.0 mg/kg/injection, schedule: Q04DX003 (sc), vehicle: steriod suspending solution 115 % of control | dose: 400.0 mg/kg/injection, schedule: Q01DX009 (sc), vehicle: steriod suspending solution 98 % of control | dose: 400.0 mg/kg/injection, schedule: Q04DX003 (sc), vehicle: steriod suspending solution 107 % of control

O=C(O)C(O)C(O)C(O)C(O)CO (centres undefined)
inactive: dose: 100.0 mg/kg/injection, schedule: Q04DX003 (ip), vehicle: saline 106 % of control | dose: 200.0 mg/kg/injection, schedule: Q04DX003 (ip), vehicle: saline 96 % of control | dose: 400.0 mg/kg/injection, schedule: Q04DX003 (ip), vehicle: saline 96 % of control

O=C(COc1ccc(Br)cc1)Nc1ccc(Br)cc1
inactive: [3] 95 % of control | [4] 95 % of control | [5] 89 % of control

CCOC(=O)COc1cc([N+](=O)[O-])c(Cl)cc1Cl
inactive: [3] 98 % of control | [4] 98 % of control | [5] 98 % of control

COC(=O)CC(N)C(=O)OC (centres undefined)
inactive: [6] 89 % of control | [7] 86 % of control | [8] 90 % of control

Cc1ccc(NC(=O)Oc2cccnc2)cc1
inactive: dose: 12.5 mg/kg/injection, schedule: Q01DX009 (ip), vehicle: Klucel (hydroxypropylcellulose) (HPC) 107 % of control | dose: 25.0 mg/kg/injection, schedule: Q01DX009 (ip), vehicle: Klucel (hydroxypropylcellulose) (HPC) 107 % of control | dose: 50.0 mg/kg/injection, schedule: Q01DX009 (ip), vehicle: Klucel (hydroxypropylcellulose) (HPC) 96 % of control

O=C(O)c1ccc2c(c1Cl)C(=O)c1ccccc1C2=O
inactive: [1] 98 % of control | [2] 93 % of control

O=C(Nc1ccccc1)c1ccccc1C(O)(c1ccccc1)c1ccc(Cl)cc1 (centres undefined)
inactive: dose: 100.0 mg/kg/injection, schedule: Q01DX009 (ip), vehicle: saline with Tween-80 92 % of control | dose: 200.0 mg/kg/injection, schedule: Q01DX009 (ip), vehicle: saline with Tween-80 90 % of control | dose: 400.0 mg/kg/injection, schedule: Q01DX009 (ip), vehicle: saline with Tween-80 93 % of control

CCC1=C(c2ccc(OC)cc2)C(C)Oc2cc(OC(C)=O)ccc21 (centres undefined)
inactive: dose: 50.0 mg/kg/injection, schedule: Q01DX001 (sc), vehicle: steriod suspending solution 101 % of control | dose: 100.0 mg/kg/injection, schedule: Q01DX001 (sc), vehicle: steriod suspending solution 101 % of control | dose: 200.0 mg/kg/injection, schedule: Q01DX001 (sc), vehicle: steriod suspending solution 97 % of control | dose: 400.0 mg/kg/injection, schedule: Q01DX001 (sc), vehicle: steriod suspending solution 103 % of control

N#CN1CC(C(=O)N2CCCCC2)C=C2c3cccc4[nH]cc(c34)CC21 (centres undefined)
inactive: dose: 4.0 mg/kg/injection, schedule: Q04DX003 (ip), vehicle: saline 96 % of control | dose: 6.25 mg/kg/injection, schedule: Q04DX003 (ip), vehicle: saline 119 % of control | dose: 8.0 mg/kg/injection, schedule: Q04DX003 (ip), vehicle: saline 95 % of control | dose: 12.5 mg/kg/injection, schedule: Q04DX003 (ip), vehicle: saline 118 % of control | dose: 16.0 mg/kg/injection, schedule: Q04DX003 (ip), vehicle: saline 86 % of control | dose: 25.0 mg/kg/injection, schedule: Q04DX003 (ip), vehicle: saline 115 % of control | dose: 50.0 mg/kg/injection, schedule: Q04DX003 (ip), vehicle: saline 90 % of control

Cc1cn(C2OC(CO)C(O[Si](C)(C)C)C(O[Si](C)(C)C)C2O[Si](C)(C)C)c(=O)[nH]c1=O (centres undefined)
inactive: [6] 97 % of control | [7] 94 % of control | [8] 97 % of control
